Experimental data taken from patent US7507728B2, “Halogen substituted imidazol[1,5-A][1,2,4]triazolo[1,5-D][1,4]benzodiazepine derivatives” (priority 2004, dated 2009).
Read-outs that look alike come from different tables or passages of the source.

Assays:
[1] = molecular target: T1, GABA A receptor α3β3γ2 (hα3) (Homo sapiens, UniProt P18507+P34903); assay: [3H]flumazenil competition binding, human GABA A α3β3γ2
T1 construct: expressed in transfected cells; host or cells: HEK293, transiently transfected; membranes
Protocol: (§1) The affinity of compounds at GABA A receptor subtypes was measured by competition for [^3H]flumazenil (85 Ci/mmol; Roche) binding to HEK293 cells expressing rat (stably transfected) or human (transiently transfected) receptors of composition α1β3γ2, α2β3γ2, α3β3γ2 and α5β3γ2.
(§2) Cell pellets were suspended in Krebs-tris buffer (4.8 mM KCl, 1.2 mM CaCl2, 1.2 mM MgCl2, 120 mM NaCl, 15 mM Tris; pH 7.5; binding assay buffer), homogenized by polytron for ca. 20 sec on ice and centrifuged for 60 min at 4° C. (50000 g; Sorvall, rotor: SM24=20000 rpm). The cell pellets were resuspended in Krebs-tris buffer and homogenized by polytron for ca. 15 sec on ice. Protein was measured (Bradford method, Bio-Rad) and aliquots of 1 mL were prepared and stored at −80° C.
(§3) Radioligand binding assays were carried out in a volume of 200 μL (96-well plates) which contained 100 μL of cell memebranes, [^3H]flumazenil at a concentration of 1 nM for α1, α2, α3 subunits and 0.5 nM for α5 subunits and the test compound in the range of 10^−10−3×10^−6 M. Nonspecific binding was defined by 10^−5 M diazepam and typically represented less than 5% of the total binding. Assays were incubated to equilibrium for 1 hour at 4° C. and harvested onto GF/C uni-filters (Packard) by filtration using a Packard harvester and washing with ice-cold wash buffer (50 mM Tris; pH 7.5). After drying, filter-retained radioactivity was detected by liquid scintillation counting. Ki values were calculated using Excel-Fit (Microsoft) and are the means of two determinations.

[2] = molecular target: T2, GABA A receptor α5β3γ2 (hα5) (Homo sapiens, UniProt P18507+P31644); assay: [3H]flumazenil competition binding, human GABA A α5β3γ2
T2 construct: expressed in transfected cells; host or cells: HEK293, transiently transfected; membranes
Protocol: as §1, §2, §3

[3] = molecular target: T3, GABA A receptor α1β3γ2 (hα1) (Homo sapiens, UniProt P14867+P18507); assay: [3H]flumazenil competition binding, human GABA A α1β3γ2
T3 construct: expressed in transfected cells; host or cells: HEK293, transiently transfected; membranes
Protocol: as §1, §2, §3

[4] = molecular target: T4, GABA A receptor α2β3γ2 (hα2) (Homo sapiens, UniProt P18507+P47869); assay: [3H]flumazenil competition binding, human GABA A α2β3γ2
T4 construct: expressed in transfected cells; host or cells: HEK293, transiently transfected; membranes
Protocol: as §1, §2, §3

[5] = HEK293 cells transiently transfected, 0.5 nM [3H]flumazenil, mean of two determinations, read-out: Ki[nM] hα5
[6] = HEK293 cells transiently transfected, 1 nM [3H]flumazenil, mean of two determinations, read-out: Ki[nM] hα1
[7] = HEK293 cells transiently transfected, 1 nM [3H]flumazenil, mean of two determinations, read-out: Ki[nM] hα3
[8] = HEK293 cells transiently transfected, 1 nM [3H]flumazenil, mean of two determinations, read-out: Ki[nM] hα2

Structure (SMILES) | Ki [1] [nM] | Ki [2, 5] [nM] | Ki [3, 6] [nM] | Ki [4] [nM] | Ki [1, 7] [nM] | Ki [4, 8] [nM] | Ki [2] [nM] | Ki [3] [nM]
Clc1ncn2c1Cn1ncnc1-c1ccccc1-2 [Example 1, 10-Chloro-9H-imidazo[1,5-a][1,2,4]triazolo[1,5-d][1,4]benzodiazepine] | 0.7 | 0.3 | 3.8 | 1.5 |  |  |  | 
Fc1ccc2c(c1)-c1ncnn1Cc1c(Cl)ncn1-2 [Example 2, 10-Chloro-3-fluoro-9H-imidazo[1,5-a][1,2,4]triazolo[1,5-d][1,4]benzodiazepine] | 0.78 | 0.3 | 0.7 | 1.2 |  |  |  | 
COc1ccc2c(c1)-c1ncnn1Cc1c(Cl)ncn1-2 [Example 3, 10-Chloro-3-methoxy-9H-imidazo[1,5-a][1,2,4]triazolo[1,5-d][1,4]benzodiazepine] | 11.7 | 0.8 | 12.2 | 17.2 |  |  |  | 
FCCOc1ccc2c(c1)-c1ncnn1Cc1c(Cl)ncn1-2 [Example 7, 10-Chloro-3-(2-fluoro-ethoxy)-9H-imidazo[1,5-a][1,2,4]triazolo[1,5-d][1,4]benzodiazepine] | 20.7 | 1.3 | 18.5 | 25 |  |  |  | 
FC(F)COc1ccc2c(c1)-c1ncnn1Cc1c(Cl)ncn1-2 [Example 8, 10-Chloro-3-(2,2-difluoro-ethoxy)-9H-imidazo[1,5-a][1,2,4]triazolo[1,5-d][1,4]benzodiazepine] | 24.4 | 2 | 22.1 | 29.4 |  |  |  | 
C=COc1ccc2c(c1)-c1ncnn1Cc1c(Cl)ncn1-2 [Example 10, 10-Chloro-3-vinyloxy-9H-imidazo[1,5-a][1,2,4]triazolo[1,5-d][1,4]benzodiazepine] | 11.4 | 1.2 | 22.4 | 25.6 |  |  |  | 
CNc1ccc2c(c1)-c1ncnn1Cc1c(Cl)ncn1-2 [Example 12, 10-Chloro-3-methylamino-9H-imidazo[1,5-a][1,2,4]triazolo[1,5-d][1,4]benzodiazepine] | 8 | 1.8 | 5.9 | 15.7 |  |  |  | 
Clc1ncn2c1Cn1ncnc1-c1cc(Br)ccc1-2 [Example 21, 3-Bromo-10-chloro-9H-imidazo[1,5-a][1,2,4]triazolo[1,5-d][1,4]benzodiazepine] |  | 1.4 | 33 |  | 8.8 | 24.1 |  | 
Cc1ccc2c(c1)-c1ncnn1Cc1c(Cl)ncn1-2 [Example 22, 10-Chloro-3-methyl-9H-imidazo[1,5-a][1,2,4]triazolo[1,5-d][1,4]benzodiazepine] | 21.4 | 1.8 | 19.6 | 40.5 |  |  |  | 
Clc1ncn2c1Cn1ncnc1-c1cc(C3CC3)ccc1-2 [Example 30, 10-Chloro-3-cyclopropyl-9H-imidazo[1,5-a][1,2,4]triazolo[1,5-d][1,4]benzodiazepine] | 20.4 | 1.2 | 28.7 | 18.7 |  |  |  | 
FC(F)c1ccc2c(c1)-c1ncnn1Cc1c(Cl)ncn1-2 [Example 32, 10-Chloro-3-difluoromethyl-9H-imidazo[1,5-a][1,2,4]triazolo[1,5-d][1,4]benzodiazepine] | 16 | 1.1 | 20.5 | 40.1 |  |  |  | 
Brc1ncn2c1Cn1ncnc1-c1ccccc1-2 [Example 46, 10-Bromo-9H-imidazo[1,5-a][1,2,4]triazolo[1,5-d][1,4]benzodiazepine] | 0.6 | 0.2 | 2.4 | 0.8 |  |  |  | 
Fc1ccc2c(c1)-c1ncnn1Cc1c(Br)ncn1-2 [Example 47, 10-Bromo-3-fluoro-9H-imidazo[1,5-a][1,2,4]triazolo[1,5-d][1,4]benzodiazepine] | 3.9 | 0.5 | 2.1 | 3.7 |  |  |  | 
Clc1ccc2c(c1)-c1ncnn1Cc1c(I)ncn1-2 [Example 48, 3-Chloro-10-iodo-9H-imidazo[1,5-a][1,2,4]triazolo[1,5-d][1,4]benzodiazepine] | 11.3 | 1.4 | 9.2 | 14.7 |  |  |  | 
O=C(Nc1ccc2c(c1)-c1ncnn1Cc1c(Cl)ncn1-2)C1CC1 [Example 50, 3-(Cyclopropanecarbonyl-amino)-10-chloro-9H-imidazo[1,5-a][1,2,4]triazolo[1,5-d][1,4]benzodiazepine] |  | 15.8 |  |  |  |  |  | 
Clc1ncn2c1Cn1ncnc1-c1cc(-c3cccnc3)ccc1-2 [Example 57, 10-Chloro-3-(pyridin-3-yl)-9H-imidazo[1,5-a][1,2,4]triazolo[1,5-d][1,4]benzodiazepine] | 21.7 | 6.7 | 9.4 | 33.9 |  |  |  | 
CCCc1ccc2c(c1)-c1ncnn1Cc1c(Cl)ncn1-2 [Example 64, 10-Chloro-3-propyl-9H-imidazo[1,5-a][1,2,4]triazolo[1,5-d][1,4]benzodiazepine] |  | 7 | 58.8 |  | 187 | 136 |  | 
CCCCc1ccc2c(c1)-c1ncnn1Cc1c(Cl)ncn1-2 [Example 65, 3-Butyl-10-chloro-9H-imidazo[1,5-a][1,2,4]triazolo[1,5-d][1,4]benzodiazepine] |  |  |  |  | 115 | 106 | 9.6 | 39.2
C=Cc1ccc2c(c1)-c1ncnn1Cc1c(Cl)ncn1-2 [Example 66, 10-Chloro-3-vinyl-9H-imidazo[1,5-a][1,2,4]triazolo[1,5-d][1,4]benzodiazepine] |  | 1.4 | 20.6 |  | 16.8 | 17.5 |  | 
COC(=O)c1ccc2c(c1)-c1ncnn1Cc1c(Cl)ncn1-2 [Example 69, 10-Chloro-3-(methoxy-carbonyl)-9H-imidazo[1,5-a][1,2,4]triazolo[1,5-d][1,4]benzodiazepine] | 7.5 | 1 | 7.5 | 11.6 |  |  |  | 
C=C=Cc1ccc2c(c1)-c1ncnn1Cc1c(Cl)ncn1-2 [Example 70, 10-Chloro-3-(propa-1,2-dienyl)-9H-imidazo[1,5-a][1,2,4]triazolo[1,5-d][1,4]benzodiazepine] | 30.7 | 3.2 | 26.9 | 30.3 |  |  |  | 
Clc1ncn2c1Cn1ncnc1-c1cc(NC3CC3)ccc1-2 [Example 72, 10-chloro-3-cyclopropylamino-9H-imidazo[1,5-a][1,2,4]triazolo[1,5-d][1,4]benzodiazepine] | 78.8 | 2.2 | 21 | 93.7 |  |  |  | 
